This is an account of results in ChEMBL document CHEMBL1138587, “A new class of 5-HT2B antagonists possesses favorable potency, selectivity, and rat pharmacokinetic properties” (Bioorg Med Chem Lett, 2009).

In data set [1] the target is T1, 5-hydroxytryptamine receptor 2B (Homo sapiens, UniProt P41595). Kind of data set: Antagonist activity at 5-HT2B receptor expressed in CHOK1 cells assessed as inhibition of serotonin-induced intracellular Ca2+ flux by aequorin luminescence assay. The data set is classed as functional, cell-based, CHO-K1.
For data set [2], the target named is T1, 5-hydroxytryptamine receptor 2B. Description: Antagonist activity at 5-HT2B receptor expressed in CHOK1 cells assessed as inhibition of serotonin-induced intracellular Ca2+ flux by aequorin luminescence assay in presence of 4% human serum albumin. The data set is classed as functional, cell-based, CHO-K1. (Calcium assays in cells follow changes in intracellular calcium, usually with a dye or a luminescent sensor.)

Data set [3] can be described thus: Cmax in Sprague-Dawley rat 10 mg/kg, po. The data set is classed as ADME, organism-based. More on the design: dose 10 mg/kg, route oral. The note with it: in vivo.
Data set [4] is described as follows: Oral bioavailability in Sprague-Dawley rat. The format is ADME, organism-based. As to conditions: in vivo.
The nature of data set [5]: AUC in Sprague-Dawley rat at 10 mg/kg, po. The format is ADME, organism-based. More on the design: dose 10 mg/kg, route oral. As to conditions: plasma.
Data set [6] can be described thus: Aqueous solubility of compound at pH 7.4. The format is physicochemical. The note with it: aqueous medium.
Data set [7] can be described thus: Selectivity for 5-HT2B receptor over 5-HT2A receptor.
Data set [8] can be described thus: Protein binding in plasma by dialysis method. The format is ADME, cell-free. As to conditions: read-out: PPB (converted).
Data set [9] deals with 5-hydroxytryptamine receptor 2A (Homo sapiens) (UniProt P28223). Description: Antagonist activity at 5-HT2A receptor up to 10 uM by FLIPR assay. The format is functional.
In data set [10] the target is T2, 5-hydroxytryptamine receptor 2C (Homo sapiens) (UniProt P28335).
T2 sequence (whole entry): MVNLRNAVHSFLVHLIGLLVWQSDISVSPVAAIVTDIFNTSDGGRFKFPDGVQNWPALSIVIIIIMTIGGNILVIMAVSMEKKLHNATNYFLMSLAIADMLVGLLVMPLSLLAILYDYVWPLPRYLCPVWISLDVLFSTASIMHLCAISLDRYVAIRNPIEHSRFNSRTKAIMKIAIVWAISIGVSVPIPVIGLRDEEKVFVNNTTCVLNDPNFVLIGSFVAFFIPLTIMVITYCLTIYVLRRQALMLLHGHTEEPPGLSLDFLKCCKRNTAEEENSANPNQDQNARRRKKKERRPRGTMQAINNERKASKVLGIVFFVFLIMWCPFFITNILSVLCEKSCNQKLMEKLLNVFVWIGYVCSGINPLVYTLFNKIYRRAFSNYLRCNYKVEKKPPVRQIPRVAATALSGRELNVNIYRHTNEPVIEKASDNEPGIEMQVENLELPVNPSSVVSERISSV
Kind of data set: Antagonist activity at 5-HT2C receptor up to 10 uM by FLIPR assay. The format is functional.

Data set [11] can be described thus: Inhibition of dopamine D4.2 receptor at 10 uM.
A short description of data set [12]: Selectivity for 5-HT2B receptor over 5-HT2C receptor.
A short description of data set [13]: Cmax in Wistar rat 10 mg/kg, po. The note with it: in vivo. More on the design: dose 10 mg/kg, route oral. The format is ADME, organism-based.
Data set [14] in a line: Oral bioavailability in Wistar rat. The data set is classed as ADME, organism-based. The note with it: in vivo.
The next data set deals with Rattus norvegicus. Description: Hepatic blood flow in Wistar rat at 1 mg/kg, iv. The format is ADME, organism-based, Liver. More on the design: dose 1 mg/kg, route intravenous. As to conditions: in vivo.
The nature of data set [15]: AUC in Wistar rat at 10 mg/kg, po. The data set is classed as ADME, organism-based. The note with it: plasma. More on the design: dose 10 mg/kg, route oral.

≈ marks a conversion by molar mass, not a printed value. Calls of active or inactive are those of the source. No cut-off for these calls is given here. Bounds are passed on as bounds.

T1 sequence (P41595 whole entry): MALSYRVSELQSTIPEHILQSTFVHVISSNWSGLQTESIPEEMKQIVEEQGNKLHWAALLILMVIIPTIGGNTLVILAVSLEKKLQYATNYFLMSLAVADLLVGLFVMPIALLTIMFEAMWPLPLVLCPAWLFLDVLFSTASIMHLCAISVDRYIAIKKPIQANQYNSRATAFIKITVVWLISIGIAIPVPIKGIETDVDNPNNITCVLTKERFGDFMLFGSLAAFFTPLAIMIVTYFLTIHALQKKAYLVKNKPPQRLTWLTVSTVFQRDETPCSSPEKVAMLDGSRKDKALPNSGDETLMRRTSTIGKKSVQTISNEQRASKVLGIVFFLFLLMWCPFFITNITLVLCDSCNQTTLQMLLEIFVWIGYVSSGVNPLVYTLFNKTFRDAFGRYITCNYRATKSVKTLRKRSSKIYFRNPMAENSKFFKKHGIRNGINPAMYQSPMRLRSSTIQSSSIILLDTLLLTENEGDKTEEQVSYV
Sequence of 5-hydroxytryptamine receptor 2A (Homo sapiens) (P28223 whole entry): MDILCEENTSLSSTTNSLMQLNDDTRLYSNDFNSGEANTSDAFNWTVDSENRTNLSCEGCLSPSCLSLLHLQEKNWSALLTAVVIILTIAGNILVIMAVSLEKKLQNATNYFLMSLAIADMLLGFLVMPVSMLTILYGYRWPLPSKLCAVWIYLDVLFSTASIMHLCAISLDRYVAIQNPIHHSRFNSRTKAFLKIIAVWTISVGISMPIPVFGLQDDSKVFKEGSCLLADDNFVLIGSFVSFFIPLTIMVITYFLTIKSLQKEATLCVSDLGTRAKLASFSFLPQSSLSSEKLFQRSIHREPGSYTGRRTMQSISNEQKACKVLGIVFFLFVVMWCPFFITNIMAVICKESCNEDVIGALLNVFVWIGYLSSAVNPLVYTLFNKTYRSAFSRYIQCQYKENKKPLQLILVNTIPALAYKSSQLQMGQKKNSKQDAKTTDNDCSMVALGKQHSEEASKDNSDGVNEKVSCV

For `O=C(c1ccc(N2CCCCC2)cc1)N1CCC(c2nc3ccccc3[nH]2)CC1`, the values for the IC50 in [1] and in [2] were 48 nM and 12000 nM, respectively.

Regarding `NC(=O)C1CCN(C(=O)c2ccc(-c3ccccc3)cc2)CC1`, the IC50 (as a rule, the point on the concentration scale where inhibition reaches its midpoint) in data set [1] was more than 6500 nM.

For `O=C(C1CCC(c2ccccc2)CC1)N1CCC(c2nc3ccccc3[nH]2)CC1` (centres undefined), the IC50 in data set [1] is 610 nM; in data set [2], more than 20000 nM.

In the case of `O=C(c1ccc(-c2ccccc2)[nH]c1=O)N1CCC(c2nc3ccccc3[nH]2)CC1`, the IC50 was 22 nM in data set [1] and more than 3000 nM in [2].

With `O=S(=O)(c1ccc(-c2ccccc2)cc1)N1CCC(Cc2ncc[nH]2)CC1`, the IC50 came out at 6.5 nM in data set [1] and 990 nM in data set [2].

Consider `O=C(c1ccc(C2CCCCC2)cc1)N1CCC(c2nc3ccccc3[nH]2)CC1`, for which the IC50 was found to be 31 nM in [1] and 1100 nM in [2].

Take `O=C(c1ccc(-c2ccccc2)cc1)N1CCC(c2nc3ccccc3o2)CC1`: the values for the IC50 in [1] and in data set [2] were 1500 nM and more than 20000 nM, respectively.

Regarding `O=C(c1ccccc1)N1CCC(c2nc3ccccc3[nH]2)CC1`, the IC50 in data set [1] and in data set [2] was more than 10000 nM throughout.

In the case of `O=C(c1ccc(-c2ccc(F)cc2)cc1)N1CCC(Cc2ncc[nH]2)CC1`, the highest concentration (Cmax) (usually the peak of the concentration-time curve) in data set [3] turned out to be 600 ng/mL. Moreover, in data set [4], the bioavailability came to 118%. Moreover, the AUC (in general, the area under the concentration-time curve, a measure of exposure) in data set [5] came to 6500 ng·h/mL.

As for `NC(=O)c1ccc(-c2ccc(C(=O)N3CCC(c4nc5ccccc5[nH]4)CC3)cc2)cc1`, the IC50 was more than 2400 nM in data set [1] and more than 24000 nM in [2].

With `O=S(=O)(c1ccc(-c2ccccc2)cc1)N1CCC(c2ncc[nH]2)CC1`, the IC50 in data set [1] was 0.3 nM; in [2], 32 nM.

As to `CCOc1nc(-c2ccccc2)ncc1C(=O)N1CCC(c2nc3ccccc3[nH]2)CC1`, the results for the IC50 in data set [1] and in data set [2] were 6 nM and 910 nM, respectively.

Take `Cn1c(C2CCN(C(=O)c3ccc(-c4ccccc4)cc3)CC2)nc2ccccc21`: the values for the IC50 in data set [1] and in data set [2] were 80 nM and 10000 nM, respectively.

Consider `O=C(c1ccc(-c2ccccc2)cc1)N1CCC(c2nc3ccccc3[nH]2)CC1`, for which the concentration in solution in [6] (solubility) was 3 µg/mL (≈ 7.86 µM). In addition, in data set [3], the Cmax amounted to 5000 ng/mL. Further, the Selectivity ratio in data set [7] and in data set [12] was more than 10000 in each case. The fraction unbound in [8] was 0.001. Further, the IC50 in data set [1] is 2.4 nM; in [2] it was 1200 nM. Further, the result in data set [9] and in [10] was inactive. Further, in [11], the inhibition – broadly, the drop in the measured response relative to a control, in per cent – worked out at 99%. For the same compound, the bioavailability in data set [4] was found to be 130%. The same compound returned an AUC in [5] of 25000 ng·h/mL.

In the case of `O=C(c1ccc(-c2ccccc2)cc1)N1CCC(Cc2ncc[nH]2)CC1`, the IC50 was 0.4 nM in data set [1] and 14 nM in [2].

Consider `Cc1cc2c(cc1Cl)N(C(=O)Nc1cccc3ncccc13)CC2`, for which the Selectivity ratio in data set [7] is 7; in data set [12], 0.5. The IC50 was found to be 13 nM in data set [1] and 64 nM in data set [2].

Take `O=C(c1ccc(-c2ccncc2)cc1)N1CCC(c2nc3ccccc3[nH]2)CC1`: the IC50 in data set [1] is more than 1300 nM; in data set [2], more than 13000 nM.

Take `O=C(c1ccc(N2CCOCC2)cc1)N1CCC(c2nc3ccccc3[nH]2)CC1`: the values for the IC50 in [1] and in [2] were 2300 nM and more than 26000 nM, respectively.

As for `O=S(=O)(c1ccc(-c2ccccc2)cc1)N1CCC(Cc2nc3ccccc3[nH]2)CC1`, the half-maximal inhibitory concentration (IC50) in [1] is 1100 nM; in data set [2] it was more than 23000 nM.

For `O=C(c1ccc(-c2ccccc2)cc1)N1CC(c2nc3ccccc3[nH]2)C1`, the IC50 in [1] is 150 nM; in [2], more than 2800 nM.

With `O=C(c1ccc(-c2ccccc2)cc1)N1CCC(c2ncc[nH]2)CC1`, the fraction unbound in data set [8] is 0.001.

On to `O=C(c1ccc(-c2ccc(OC(F)(F)F)cc2)cc1)N1CCC(c2nc3ccccc3[nH]2)CC1`, for which the results for the IC50 in data set [1] and in data set [2] were 95 nM and 16000 nM, respectively.

Consider `O=C(c1ccc(-c2cccnc2)cc1)N1CCC(c2nc3ccccc3[nH]2)CC1`, for which the IC50 in data set [1] is 340 nM; in data set [2], more than 14000 nM.

For the compound `O=C(c1ccc(-c2ccccc2)cn1)N1CCC(c2nc3ccccc3[nH]2)CC1`, the results for the IC50 in [1] and in [2] were 12 nM and more than 2400 nM, respectively.

In the case of `CC(C)c1cc(-c2ccc(F)c3ccccc23)nc(N)n1`, the Cmax in data set [13] stood at 470 ng/mL. The Selectivity ratio in [7] is 2000; in data set [12] it was 92. In data set [8], the fraction unbound was 0.001. In addition, the IC50 was determined as 0.7 nM in [1] and 19 nM in data set [2]. In addition, in data set [14], the bioavailability was found to be 10%. The same compound showed a QH in the data set with Rattus norvegicus of 29%. In data set [15], this compound gave an AUC of 810 ng·h/mL.

As for `COc1ccc(-c2ccc(C(=O)N3CCC(c4nc5ccccc5[nH]4)CC3)cc2)cc1`, the IC50 in [1] was found to be 3.4 nM; in data set [2], 3200 nM.

Turning to `COc1cc(-c2ccccc2)ccc1C(=O)N1CCC(c2nc3ccccc3[nH]2)CC1`, the IC50 in data set [1] stood at 4 nM; in data set [2] it was 1200 nM.

Consider `O=C(c1ccc(-c2ccccc2)cc1)N1CCN(c2nc3ccccc3[nH]2)CC1`, for which the values for the IC50 in [1] and in data set [2] were 6900 nM and more than 25000 nM, respectively.

In data set [3], `O=S(=O)(c1ccc(-c2ccc(F)cc2)cc1)N1CCC(c2ncc[nH]2)CC1` yielded a Cmax of 870 ng/mL. Besides, the IC50 in data set [1] came out at 0.6 nM; in data set [2], 30 nM. Further, the bioavailability in data set [4] was determined as 54%. For the same compound, the AUC in data set [5] was 2300 ng·h/mL.

As to `O=C(c1ccc(-c2ncccn2)cc1)N1CCC(c2nc3ccccc3[nH]2)CC1`, the IC50 in [1] is 120 nM; in data set [2], more than 2700 nM.

As to `c1ccc(-c2ccc(CN3CCC(c4nc5ccccc5[nH]4)CC3)cc2)cc1`, the IC50 in data set [1] was determined as 65 nM; in data set [2], 7300 nM.

With `O=C(c1ccc(Br)cc1)N1CCC(c2nc3ccccc3[nH]2)CC1`, the IC50 in [1] is more than 13000 nM; in data set [2] it was more than 26000 nM.

In [3], `O=C(c1ccc(-c2ccc(F)cc2)cc1)N1CCC(c2ncc[nH]2)CC1` displayed a Cmax of 1700 ng/mL. Moreover, the bioavailability in data set [4] is 100%. Also, in data set [5], the area under the curve (AUC) was 14000 ng·h/mL.

On to `O=C(c1ccc(-c2ccccc2)cc1)N1CCC(Cc2nc3ccccc3[nH]2)CC1`, for which the figures for the IC50 in data set [1] and in data set [2] were 2.3 nM and 300 nM, respectively.

Take `O=C(c1cnc(-c2ccccc2)nc1)N1CCC(c2nc3ccccc3[nH]2)CC1`: the fraction unbound in data set [8] was 0.009. The IC50 in data set [1] was 2.5 nM; in [2] it was 710 nM.

Turning to `O=S(=O)(c1ccc(-c2ccccc2)cc1)N1CCC(c2nc3ccccc3[nH]2)CC1`, the results for the IC50 in data set [1] and in [2] were 1.9 nM and 840 nM, respectively.

In the case of `N#Cc1cc(CN2CCC(Nc3ncnc4sc(Cl)cc34)CC2)ccc1F` [PRX-08066 FREE BASE], the Cmax in data set [13] was determined as 240 ng/mL. For the same compound, the Selectivity ratio in data set [7] and in data set [12] was more than 3000 throughout. Also, the fraction unbound in data set [8] is 0.01. Moreover, the IC50 is 3.5 nM in data set [1] and 270 nM in [2]. The bioavailability in data set [14] stood at 17%. The QH in the data set with Rattus norvegicus is reported as 82%. Besides, the AUC in data set [15] is 500 ng·h/mL.
